Measurements from ChEMBL document CHEMBL4393689, “Discovery of fluorescent coumarin-benzo[b]thiophene 1, 1-dioxide conjugates as mitochondria-targeting antitumor STAT3 inhibitors” (Eur J Med Chem, 2019).
Calls of active or inactive are those of the source. The calls are words filed in the database; no cut-off is given here.

Assays:
MDA-MB-231 [1] = test: Effect on total STAT3 expression in human MDA-MB-231 cells at 1 to 4 uM incubated for 24 hrs by Western blot analysis; type: ADME, cell-based; conditions: mda-mb-231, 24 h
MDA-MB-231 [2] = test: Inhibition of colony formation in human MDA-MB-231 cells at 2 uM treated for 24 hrs and measured after 10 to 14 days by crystal violet staining based assay; type: functional
HepG2 = test: Antiproliferative activity against human HepG2 cells assessed as reduction in cell viability incubated for 48 hrs by MTT assay; type: functional, cell-based; conditions: HepG2, 48 h
[3] = target: T1, Signal transducer and activator of transcription 1-alpha/beta (Homo sapiens) (UniProt P42224); test: Inhibition of STAT1 in human MDA-MB-231 cells assessed as decrease in STAT1 phosphorylation at Y701 residue at 1 to 4 uM incubated for 24 hrs by Western blot analysis; type: cell-based
T1 sequence (whole entry): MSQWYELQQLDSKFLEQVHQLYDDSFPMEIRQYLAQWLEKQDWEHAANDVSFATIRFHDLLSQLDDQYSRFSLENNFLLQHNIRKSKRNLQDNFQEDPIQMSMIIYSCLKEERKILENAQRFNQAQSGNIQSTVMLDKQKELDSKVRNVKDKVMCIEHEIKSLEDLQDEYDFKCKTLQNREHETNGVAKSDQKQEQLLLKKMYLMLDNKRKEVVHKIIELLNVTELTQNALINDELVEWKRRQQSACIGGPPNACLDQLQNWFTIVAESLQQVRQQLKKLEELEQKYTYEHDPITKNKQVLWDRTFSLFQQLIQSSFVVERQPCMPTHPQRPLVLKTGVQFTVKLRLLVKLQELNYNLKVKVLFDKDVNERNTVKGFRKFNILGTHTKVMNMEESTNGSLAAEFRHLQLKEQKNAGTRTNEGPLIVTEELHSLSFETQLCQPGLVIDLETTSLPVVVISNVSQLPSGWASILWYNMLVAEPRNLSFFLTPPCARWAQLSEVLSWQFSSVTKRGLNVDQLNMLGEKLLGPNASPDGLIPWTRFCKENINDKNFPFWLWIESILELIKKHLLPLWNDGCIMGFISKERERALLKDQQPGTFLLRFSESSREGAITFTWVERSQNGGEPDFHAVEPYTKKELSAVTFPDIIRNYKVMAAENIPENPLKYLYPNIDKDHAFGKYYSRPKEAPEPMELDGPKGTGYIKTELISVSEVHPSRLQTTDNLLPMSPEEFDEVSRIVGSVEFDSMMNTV

[4] = Selectivity index, ratio of IC50 for human L02 cells to IC50 for human HepG2 cells; type: toxicity; conditions: L02 cells versus HepG2 cells, read-out: Ratio IC50
[5] = Selectivity index, ratio of IC50 for human MCF10A cells to IC50 for human MDA-MB-231 cells; type: toxicity; conditions: MCF10A cells versus MDA-MB-231 cells, read-out: Ratio IC50
MDA-MB-231 [6] = test: Inhibition of colony formation in human MDA-MB-231 cells assessed as reduction in cell proliferation at 1 uM treated for 24 hrs and measured after 10 to 14 days by crystal violet staining based assay; type: functional
[7] = target: Tyrosine-protein kinase JAK2 (Homo sapiens) (UniProt O60674); test: Inhibition of JAK2 in human MDA-MB-231 cells assessed as reduction in JAK2 phosphorylation at 1 to 4 uM incubated for 24 hrs by Western blot analysis; type: cell-based
Sequence of Tyrosine-protein kinase JAK2 (Homo sapiens) (O60674 whole entry): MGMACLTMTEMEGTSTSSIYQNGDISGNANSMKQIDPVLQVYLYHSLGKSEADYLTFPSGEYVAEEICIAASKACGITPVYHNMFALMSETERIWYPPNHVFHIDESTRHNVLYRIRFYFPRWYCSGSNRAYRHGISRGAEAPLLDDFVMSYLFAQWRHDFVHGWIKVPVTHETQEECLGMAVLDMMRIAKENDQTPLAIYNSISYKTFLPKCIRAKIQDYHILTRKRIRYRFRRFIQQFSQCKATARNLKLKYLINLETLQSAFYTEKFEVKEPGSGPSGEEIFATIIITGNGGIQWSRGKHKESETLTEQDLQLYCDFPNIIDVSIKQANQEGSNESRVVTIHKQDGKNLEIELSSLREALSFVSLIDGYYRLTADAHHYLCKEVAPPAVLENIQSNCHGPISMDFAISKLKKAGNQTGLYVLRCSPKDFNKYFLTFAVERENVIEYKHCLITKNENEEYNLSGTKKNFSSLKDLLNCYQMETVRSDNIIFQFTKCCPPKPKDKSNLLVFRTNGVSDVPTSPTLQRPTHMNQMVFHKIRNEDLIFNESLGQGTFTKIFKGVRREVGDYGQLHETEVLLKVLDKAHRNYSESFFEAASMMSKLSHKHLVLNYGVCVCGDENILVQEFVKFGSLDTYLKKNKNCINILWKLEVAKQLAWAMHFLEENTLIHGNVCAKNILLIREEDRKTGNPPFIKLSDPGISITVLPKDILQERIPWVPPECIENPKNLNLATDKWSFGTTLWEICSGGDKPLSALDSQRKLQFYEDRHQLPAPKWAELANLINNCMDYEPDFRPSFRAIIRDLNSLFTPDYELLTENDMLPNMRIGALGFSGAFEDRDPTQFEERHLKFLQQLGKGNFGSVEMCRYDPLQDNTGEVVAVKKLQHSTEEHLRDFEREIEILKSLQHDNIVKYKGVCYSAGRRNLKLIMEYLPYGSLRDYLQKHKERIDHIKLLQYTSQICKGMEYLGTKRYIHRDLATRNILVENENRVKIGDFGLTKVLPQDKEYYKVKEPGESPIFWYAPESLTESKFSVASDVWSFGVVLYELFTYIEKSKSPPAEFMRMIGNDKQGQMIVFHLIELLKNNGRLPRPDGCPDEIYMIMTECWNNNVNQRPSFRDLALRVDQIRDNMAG

[8] = Drug accumulation in mitochondria of human MCF7 cells at 5 uM incubated for 60 mins by mitotracker red staining based confocal microscopy; type: ADME; conditions: mcf7, 1 h
MDA-MB-231 [9] = test: Induction of apoptosis in human MDA-MB-231 cells assessed as viable cells at 1 uM incubated for 24 hrs by annexinV-FITC and propidium iodide staining based flow cytometric analysis (reference value: 95.1%); type: functional; conditions: MDA-MB-231, 24 h, read-out: Activity
MDA-MB-231 [10] = test: Induction ROS accumulation in human MDA-MB-231 cells after 24 hrs by DCFH-DA staining-based flow cytometric analysis; type: functional, cell-based
MDA-MB-231 [11] = test: Induction of apoptosis in human MDA-MB-231 cells assessed as necrotic cells at 1 uM incubated for 24 hrs by annexinV-FITC and propidium iodide staining based flow cytometric analysis (reference value: 0.8%); type: functional
MDA-MB-231 [12] = test: Induction of apoptosis in human MDA-MB-231 cells assessed as viable cells at 2 uM incubated for 24 hrs by annexinV-FITC and propidium iodide staining based flow cytometric analysis (reference value: 95.1%); type: functional; conditions: MDA-MB-231, 24 h, read-out: Activity
MDA-MB-231 [13] = test: Induction of apoptosis in human MDA-MB-231 cells assessed as increase in cleaved caspase-9 levels at 1 to 4 uM incubated for 24 hrs by Western blot analysis; type: functional, cell-based
4T1 = test: Reduction in STAT3 phosphorylation at Tyr705 residue in mouse 4T1 cells implanted in BALB/c mouse at 10 to 20 mg/kg, ip for 14 days by Western blot analysis; type: functional, organism-based

IC50 (HepG2): 2.88 µM
inhibition [3]: inactive
inhibition [7]: inactive
Drug uptake [8]: Active
Structure (SMILES): CCN(CC)c1ccc2cc(C(=O)N3CCN(C(=O)C4=Cc5c(Br)cccc5S4(=O)=O)CC3)c(=O)oc2c1
Activity (MDA-MB-231 [1]): Non-Toxic
inhibition at 2 µM (MDA-MB-231 [2]): 100%
selectivity ratio [4]: 12.4
selectivity ratio [5]: 10.2
inhibition (MDA-MB-231 [6]): Active
viability at 1 µM (MDA-MB-231 [9]): 92%
Activity (MDA-MB-231 [10]): Dose-dependent effect
Activity (MDA-MB-231 [11]): 1.3%
viability at 2 µM (MDA-MB-231 [12]): 89.3%
Activity (MDA-MB-231 [13]): Active
inhibition (4T1): Active
